Test [1] is described as follows: Efficacy estimators of treatment alternatives reported in clinical trial studies. The format is in vivo, patients. The following applies: for NRS: Non Response Survival, NRS=RS−RTD; for RS: Response Survival, RS=OS+(1−CBR)·RTD; for RTD* months: duration of clinical benefit, from TTP or PFS and graphical KM considerations. The source says: Usually, in oncological studies we distinguish three reactions to a treatment well defined as their proportions are called: […]
ORR (Objective Response Rate which includes Partial Response and Complete Response) based on a percentage reduction of the tumor, PD (Progressive Disease) based on a percentage increase of the tumor and SD (Stable Disease) in which there is neither sufficient shrinkage to qualify for response, nor sufficient increase to qualify for progression.
Their proportion equals to ORR+SD and is called CBR (Clinical Benefit Rate).
OS (Overall Survival) is the median time from the treatment to death/loss of follow up.
RS (Response Survival) is the median time from response to death/loss of follow up in the responders group.
NRS (Non Response Survival) is the median time from the treatment to death/loss of follow up in the non-responders group.
The PFS (Progression Free Survival) or TTP (Time To Progression) is the median time from the treatment to the progression of the disease.
In the best case the DCB (Duration of Clinical Benefit) is also reported, which is the PFS of the participants defined like CBR.

For test [2] the following is noted: cited from earlier work; for P(Ω+|Λ+): probability the treatment works given the marker exists, from clinico-molecular studies.
For test [3] the following is noted: clinical trial study population, cited from earlier work; for CBR %: Clinical Benefit Rate (ORR+SD); for OS months: median overall survival; for RR %: response rate.
Test [4] is described as follows: Molecular Prediction of Response (MPR) for patient X. The following applies: for CBR/P(Λ+): Bayesian estimation of P(Ω+|Λ+); for MPR: final Molecular Prediction of Response, patient X; for CBR + α · sd(CBR): heuristic estimate of P(Ω+|Λ+), MPR.QI=1. An excerpt: Now, the MPR (Molecular Prediction of Response) is based on molecular results of the tumor lab analysis like the following:
At first, we attribute to the patient a “qualitative MPR”: MPR·QI in {−1, 0, 1}
If we don't know about any molecular markers that can predict a clinical response, than: MPR·QI=0
If the molecular analysis predicts no clinical response: MPR·QI=−1, and if the molecular analysis predicts some clinical response (including stable disease) MPR·QI=1.
MPR·QI=−1=>we admit in a deterministic way that MPR=0+sd(CBR)
MPR·QI=1=>we distinguish 3 cases.
Λ−⇒Ω− (or Ω+⇒Λ+) • In the best case if the article gives P(Ω+|Λ+) we use it. • If we have relevant knowledge on P(Λ+) we use a Bayesian estimation
P(Ω+|Λ+)=CBR+α·sd(RR) (2.7)
where α=3 for chemotherapy treatments and 2 for biological treatments.
The molecular predictions of the subject with the appropriated efficacy estimators or prevalence estimator from clinico-molecular and epidemiologic studies give the whole information that we need to obtain the final MPR.

Test [5] is described as follows: Adjusted Efficiency Values (AEV), pooling/ranking algorithm and efficiency grades for patient X. Conditions: for subjOS: MPR·RS if MPR.QI=1 or MPR·NRS if MPR.QI=−1, table of three AEV by treatment name; for eff.OS: effOS=MPR·RS+(1−MPR)·NRS; for ART (pooled treatment group): sample-size weighted mean ART of the pooled treatments of the line, algorithm steps 1-6. The source says: At each step, we also calculate AEG (Adjusted Efficiency Grades) with its standard-error:
AEG is a vector of grades such that to the higher AEV component the equivalent AEG component is 10 and to the lower AEV component the equivalent AEG component is 1.
At each step j, 1≤j≤k−2, we represent two successive “old” treatments (or treatment groups) which bear some different efficiency values in the j−1 step, in one “new” treatment efficiency vales in the j step. This representation is described below (we refer to it by noting that we “pull” treatments' efficiencies and represent it as a different efficiency value): • We are pooling (AEV(l(j−1))^(j−1), AEV(l(j−1)+1)^(j−1)) as if both treatments were a single treatment with an “average Adjusted Efficiency Value”: AEV(l(j−1))^(j−1)
We retain also initial AEG and final AEG (the last step which is “necessary”). But to finally give the Total Efficiency Score (TES) we use the AEG^(J):
TES=0.5×AEGART^(J)+0.45×AEGeffOS^(J)+0.05×AEGsubjOS^(J) which is a vector for k−J treatments groups.
The three AEV are finally: the RTD adjusted or ART=RTD·MPR, the effOS and a subjective OS (we choose explicitly in which group the patient is) i.e.
From RTD (table 2), MPR (table 4), RS and NRS (table 3) we get our three AEV by
ART=MPR·RTD; effOS=MPR·RS+(1−MPR)·NRS;
subjOS=MPR·RS if MPR·QI=1 or MPR·NRS if MPR·QI=−1.
The alternatives (designated here by their references) are ordered by ascending ART, and CLR are computed
The ART are projected on the grade interval (1,10) and we get:
After the 3 algorithms are done we can summarize 3 grades for each alternative and the final grade is the weighted mean of them (The weights are 0.5 for ART, 0.45 for effOS and 0.05 for subjOS when available)

[6] abbreviates: ART=MPR·RTD, table of three AEV by treatment name.
Where [7] appears, read: by treatment reference number, ordered ascending, algorithm steps 0-3.
Where [8] appears, read: table of three AEV by treatment name.

Regarding `CN(C)C/C=C/C(=O)Nc1cc2c(Nc3ccc(F)c(Cl)c3)ncnc2cc1O[C@H]1CCOC1` [Afatinib], in test [1], the NRS was 12.54 months, the RS is recorded as 16.07 months and the “RTD* months” value is recorded as 3.5 months.

In the case of `CN(C)/N=N/c1[nH]cnc1C(N)=O` [Dacarbasine], in test [2], the “P(Ω+|Λ+)” value is recorded as 44. Moreover, in test [3], the CBR % is reported as 15%, the OS months is 7.5 months and the RR % is 3%. In addition, in test [4], the “CBR/P(Λ+)” value is listed as 24.42, the MPR is reported as 44 and the “CBR + α · sd(CBR)” value is given as 23.66. Also, in test [1], the NRS is reported as 7.21 months, the RS is on record as 9.12 months and the “RTD* months” value is 1.9 months. The compound also had an ART in test [5] (setting [6]) of 0.779. Further, the subjOS in test [5] is given as 4.011. The compound also registered an ART in test [5] (setting [7]) of 0.836. In addition, in test [5] (setting [8]), the eff.OS is recorded as 6.4. Further, the “ART (pooled treatment group)” value in test [5] (listed as 2) was found to be 0.7858.

Turning to `CO[C@H]1C[C@@H]2CC[C@@H](C)[C@@](O)(O2)C(=O)C(=O)N2CCCC[C@H]2C(=O)O[C@H]([C@H](C)C[C@@H]2CC[C@@H](OCCO)[C@H](OC)C2)CC(=O)[C@H](C)/C=C(\C)[C@@H](O)[C@@H](OC)C(=O)[C@H](C)C[C@H](C)/C=C/C=C/C=C/1C` [Everolimus], in test [3], the CBR % was 32.4%, the OS months is given as 5.9 months and the RR % is 0%. Also, in test [4], the “CBR/P(Λ+)” value is 53.97, the MPR is 53.97 and the “CBR + α · sd(CBR)” value was 49.06. In test [1], the NRS is reported as 5.32 months, the RS is listed as 7.12 months and the “RTD* months” value was 1.8 months. In test [5] (setting [6]), this compound showed an ART of 2.4. This compound also registered a subjOS in test [5] of 9.077. The same compound had an ART in test [5] (setting [7]) of 0.971. The compound further came in with an eff.OS in test [5] (setting [8]) of 11.03.

Turning to `Cc1nc2ccc(CN(C)c3ccc(C(=O)N[C@@H](CCC(=O)O)C(=O)O)s3)cc2c(=O)[nH]1` [Raltitrexed], in test [2], the “P(Ω+|Λ+)” value was 50. Further, in test [3], the CBR % was 15%, the OS months is reported as 7.4 months and the RR % was 0%. Besides, in test [4], the “CBR/P(Λ+)” value was 31.01, the MPR is reported as 50 and the “CBR + α · sd(CBR)” value was 30.97. Further, in test [1], the NRS was 6.68 months, the RS was 11.48 months and the “RTD* months” value is listed as 4.8 months. The compound further registered a subjOS in test [5] of 3.841. The compound further returned an ART in test [5] (setting [7]) of 2.4. The compound also yielded an eff.OS in test [5] (setting [8]) of 6.288. In addition, the “ART (pooled treatment group)” value in test [5] (listed as 1, step 2, pooled treatments 3 and 1) came to 2.275. Further, in test [5] (listed as 1, step 3, pooled treatments 3, 1 and 6), the “ART (pooled treatment group)” value is on record as 2.387.

Take `CNC(=O)c1cc(Oc2ccc(NC(=O)Nc3ccc(Cl)c(C(F)(F)F)c3)c(F)c2)ccn1` [Regorafenib]: the CBR in test [2] (printed in column CBR + α · sd(CBR), MPR.QI=0) was 41 (CBR). Also, in test [3], the CBR % is on record as 41%, the OS months is given as 6.4 months and the RR % was 1%. Besides, in test [4], the MPR was 41. Besides, in test [1], the NRS is recorded as 5.62 months, the RS is given as 7.52 months and the “RTD* months” value is given as 1.9 months. The compound further displayed an ART in test [5] (setting [6]) of 0.971. In test [5] (setting [7]), this compound returned an ART of 0.779. The eff.OS in test [5] (setting [8]) is reported as 7.335. In test [5] (listed as 4), the “ART (pooled treatment group)” value is 0.7858.

As for `O=C1NC(=O)[C@@H](c2cn3c4c(cccc24)CCC3)[C@@H]1c1c[nH]c2ccccc12` [Tivantinib], in test [1], the NRS was 5.99 months, the RS is on record as 8.69 months and the “RTD* months” value is reported as 2.7 months.

These data come from patent publication US20180218112A1, “MOLECULAR BASED DECISION SUPPORT SYSTEM FOR CANCER TREATMENT” (priority 2014, published 2018).
